# Data: paper PMC12670511, “Discovery of Nav1.7 Inhibitors through the Screening of Marine Natural Product Extracts” (Journal of Natural Products, 2025)
# Columns and labels:
# [1] = target: T1, human Nav1.7 (hNav1.7) voltage-gated sodium channel alpha subunit (Homo sapiens, UniProt Q15858); assay: Qube automated patch-clamp electrophysiology, HEK293-hNav1.[…], inactivated state (-70 mV); also thallium flux assay IC50 […]; type: cell-based
# T1 construct: gene SCN9A; alpha subunit, stably expressed in HEK293 cells
# T1 sequence (Q15858 whole entry): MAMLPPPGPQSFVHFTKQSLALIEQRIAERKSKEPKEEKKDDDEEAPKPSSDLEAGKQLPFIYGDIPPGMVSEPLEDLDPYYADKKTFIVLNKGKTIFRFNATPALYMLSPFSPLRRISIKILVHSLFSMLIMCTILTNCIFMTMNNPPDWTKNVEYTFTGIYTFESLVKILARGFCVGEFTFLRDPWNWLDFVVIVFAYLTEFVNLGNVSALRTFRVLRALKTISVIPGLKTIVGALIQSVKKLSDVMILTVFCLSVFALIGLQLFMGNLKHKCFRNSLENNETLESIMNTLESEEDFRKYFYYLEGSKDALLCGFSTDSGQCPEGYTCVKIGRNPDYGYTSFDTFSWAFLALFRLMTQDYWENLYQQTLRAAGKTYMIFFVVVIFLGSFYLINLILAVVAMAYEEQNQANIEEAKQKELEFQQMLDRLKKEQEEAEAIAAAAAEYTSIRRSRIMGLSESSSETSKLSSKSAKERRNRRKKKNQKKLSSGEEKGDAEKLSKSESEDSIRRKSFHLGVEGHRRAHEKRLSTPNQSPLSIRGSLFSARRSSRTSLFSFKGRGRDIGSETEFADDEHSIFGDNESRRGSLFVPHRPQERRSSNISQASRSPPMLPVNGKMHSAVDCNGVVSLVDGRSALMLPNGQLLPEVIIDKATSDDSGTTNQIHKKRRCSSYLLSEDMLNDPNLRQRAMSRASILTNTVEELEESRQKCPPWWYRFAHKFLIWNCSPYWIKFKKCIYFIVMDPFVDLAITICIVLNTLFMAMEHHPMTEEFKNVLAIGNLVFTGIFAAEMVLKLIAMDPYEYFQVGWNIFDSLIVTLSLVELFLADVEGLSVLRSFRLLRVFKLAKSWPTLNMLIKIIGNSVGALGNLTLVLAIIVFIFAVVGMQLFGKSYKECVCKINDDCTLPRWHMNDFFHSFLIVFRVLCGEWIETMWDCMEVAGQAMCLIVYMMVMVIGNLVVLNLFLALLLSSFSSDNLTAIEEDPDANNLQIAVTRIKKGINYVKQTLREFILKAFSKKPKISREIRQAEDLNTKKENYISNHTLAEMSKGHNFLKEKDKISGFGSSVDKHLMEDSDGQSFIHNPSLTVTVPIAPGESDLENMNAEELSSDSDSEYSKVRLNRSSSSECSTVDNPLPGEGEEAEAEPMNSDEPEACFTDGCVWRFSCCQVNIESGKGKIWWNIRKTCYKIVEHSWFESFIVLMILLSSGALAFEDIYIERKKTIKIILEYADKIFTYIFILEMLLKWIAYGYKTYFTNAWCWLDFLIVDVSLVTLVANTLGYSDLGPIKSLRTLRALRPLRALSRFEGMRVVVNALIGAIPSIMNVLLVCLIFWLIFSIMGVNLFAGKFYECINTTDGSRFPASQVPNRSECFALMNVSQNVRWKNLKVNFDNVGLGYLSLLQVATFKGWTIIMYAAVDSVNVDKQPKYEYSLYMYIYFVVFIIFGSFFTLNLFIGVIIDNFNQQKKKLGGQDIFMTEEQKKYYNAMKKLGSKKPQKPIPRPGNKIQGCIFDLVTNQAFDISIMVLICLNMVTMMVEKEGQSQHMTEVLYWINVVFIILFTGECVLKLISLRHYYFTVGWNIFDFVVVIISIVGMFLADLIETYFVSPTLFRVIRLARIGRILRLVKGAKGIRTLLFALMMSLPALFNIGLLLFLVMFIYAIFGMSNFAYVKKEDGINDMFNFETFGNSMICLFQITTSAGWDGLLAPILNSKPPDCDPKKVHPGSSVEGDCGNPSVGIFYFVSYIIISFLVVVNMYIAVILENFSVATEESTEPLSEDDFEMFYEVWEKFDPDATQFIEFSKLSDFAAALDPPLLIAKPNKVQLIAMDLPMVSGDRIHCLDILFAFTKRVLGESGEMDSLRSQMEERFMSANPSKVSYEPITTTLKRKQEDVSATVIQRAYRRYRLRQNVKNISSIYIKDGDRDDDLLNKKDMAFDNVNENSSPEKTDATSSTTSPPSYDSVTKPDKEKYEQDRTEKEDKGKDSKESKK
# [2] = target: T1, human Nav1.7 (hNav1.7) voltage-gated sodium channel alpha subunit; assay: Qube automated patch-clamp electrophysiology, HEK293-hNav1.[…], inactivated state (-70 mV); type: cell-based
Structure (SMILES),Kd [1] [µM],Kd [2] [µM]
"CCCCCCCC/C=C\CCCCCCCC(=O)OC(COC(=O)CCCCCCCCCCCCCCC)CO[C@@H]1O[C@H](CO)[C@H](O)[C@H](O)[C@H]1O (stereo partly drawn) [compound 1, 1-palmitoyl-2-oleoyl-3-(β-D-galactosyl)-glycerol]",49.9,–
"CCCCCCCCCCCCCCCC(=O)OC[C@H](CO[C@H]1O[C@H](CS(=O)(=O)O)[C@@H](O)[C@H](O)[C@H]1O)OC(=O)CCCCCCCCCCCCCCC [compound 2, sulfoquinovosyldiacylglycerin]",–,25.2
